Test [1] has as its target benzodiazepine (BZ) receptor. Nature of the test: in vitro displacement: prevention of the binding of the compound of formula I. Also on record: species or system rat (male, Sprague-Dawley). The note with it: rat cerebral cortical tissue; given in words only.
Test [2] deals with benzodiazepine (BZ) receptor. Nature of the test: in vitro benzodiazepine receptor binding of the compound of formula I (saturation, rat cerebral cortical tissue). On the set-up: species or system rat (male, Sprague-Dawley). The following applies: for Bmax / Kd: 60 min incubation, pH 7.7; for Ratio (Specific/nonspecific): concentration of the compound of formula I at Kd, nonspecific with 10^-6 M clonazepam.

Test [3] relates to BZ receptors in the brain. Nature of the test: in vivo binding of the compound of formula I in mouse cerebral cortex. Also on record: species or system mouse (male, ICR). The note with it: mice, tail vein injection. As for the experimental part: In vivo binding of the compound of formula I was determined according to the following procedures. Mice (male, 30 g ICR, Hilltop Farms) were injected via the tail vein with the compound of formula I. Ten or 30 minutes later, the mice were killed, the cerebral cortices of the brains were dissected solubilized, and the radioactivity was determined using standard methods. In order to determine nonspecific binding, some mice were pretreated with 5 mg/kg clonazepam (30 min ip). Specific/nonspecific binding ratios in cerebral cortex were about 2 at 10 minutes. The tissues in these tests were assayed directly without first homogenizing and washing them to reduce nonspecific binding. Therefore, the ratios were true in vivo ratios. Radioactivity was low and specific binding was negligible at 30 minutes.

Broadly, the Kd is the constant that tells how readily two partners part at equilibrium. Low readings indicate tighter binding, high ones weaker binding.

On to `O=C1CN=C(c2ccccc2Cl)c2cc([N+](=O)[O-])ccc2N1` [clonazepam], for which, in test [1], the “Ki, prevention of binding of the compound of formula I” value (from here on “Ki, prevention”) is recorded as “in the nM range”.
For `Cc1ncc2n1-c1ccc(Cl)cc1C(c1ccccc1F)=NC2` [midazolam], the “Ki, prevention” value in test [1] is “in the nM range”.
In the case of `CCOC(=O)c1ncn2c1CN(C)C(=O)c1cc(F)ccc1-2` [Ethyl-8-fluoro-5,6-dehydro-5-methyl-6-oxo-4H-imidazol-[1,5-a]-1,4[benzodiazepine-3-carboxylate]], the “Ki, prevention” value in test [1] is “in the nM range”.
Turning to `[3H]c1cc(Cl)cc2c1C1=C(CN=C2c2ccccc2Cl)C(=O)NC1` [compound of formula I, 8-Chloro-6-(2-chlorophenyl)-1,4-dihydropyrrolo-[3,4-d][2]-10-t-benzazepin-3(2H)-one], in test [2] (0 °C), the Bmax is listed as 1.36 × 10^-10 mol/mg wet weight, binding was put at a Kd of 0.18 ± 0.05 nM and the “Ratio (Specific/nonspecific)” value is 12. In addition, the “specific to nonspecific ratios (FIG. 1)” value in test [2] (37 °C, 0.01 to 10 nM, over a relatively large range of concentrations) is “high”. In test [2] (37 °C), the Bmax is reported as 1.22 × 10^-10 mol/mg wet weight, the Kd stood at 0.82 ± 0.03 nM and the “Ratio (Specific/nonspecific)” value came out at 4. Further, the “affinity and selectivity for BZ receptors in the brain” value in test [2] (summary statement) was “high affinity and is a selective ligand for BZ receptors in the brain”. In addition, the “Specific/nonspecific binding ratio in cerebral cortex” value in test [3] (10 minutes, nonspecific: 5 mg/kg clonazepam (30 min ip), tissue not homogenized or washed) was “about 2”. In test [3] (30 minutes), the “Radioactivity in cerebral cortex” value is on record as “low” and the “specific binding in cerebral cortex” value is given as “negligible”.

(Values after patent US4869895A, “Radiolabeled benzazepine” (Hoffmann-La Roche Inc., priority 1988, dated 1989).)
